Numbers after ± are expanded uncertainties.
Test: molar heat capacity at saturation pressure
Conditions: Glass, Small (less than 1 g) adiabatic calorimetry

CCC[n+]1ccn(C)c1.[Br-] [1-methyl-3-propylimidazolium bromide]
Conditions | molar heat capacity [J/K/mol]
80.55 K | 98.61 ± 0.59
82.89 K | 100.33 ± 0.6
84.9 K | 101.67 ± 0.61
86.92 K | 103.14 ± 0.62
88.94 K | 104.66 ± 0.62
90.96 K | 106.14 ± 0.63
92.98 K | 107.59 ± 0.63
95 K | 109.05 ± 0.64
97.02 K | 110.46 ± 0.64
99.05 K | 111.82 ± 0.65
101.08 K | 113.17 ± 0.65
103.11 K | 114.53 ± 0.66
105.14 K | 115.8 ± 0.66
107.17 K | 117.19 ± 0.67
109.2 K | 118.42 ± 0.67
111.24 K | 119.73 ± 0.68
113.29 K | 120.92 ± 0.68
115.33 K | 122.2 ± 0.69
117.37 K | 123.41 ± 0.69
119.41 K | 124.68 ± 0.7
121.46 K | 125.82 ± 0.7
123.5 K | 127.01 ± 0.71
125.55 K | 128.16 ± 0.71
127.6 K | 129.31 ± 0.72
129.65 K | 130.51 ± 0.72
131.7 K | 131.69 ± 0.73
133.75 K | 132.94 ± 0.73
135.8 K | 134.11 ± 0.74
137.86 K | 135.27 ± 0.74
139.91 K | 136.51 ± 0.75
141.97 K | 137.66 ± 0.75
144.02 K | 138.89 ± 0.75
146.09 K | 140.08 ± 0.76
148.15 K | 141.29 ± 0.77
150.21 K | 142.47 ± 0.77
152.27 K | 143.7 ± 0.78
154.33 K | 144.86 ± 0.78
156.39 K | 146.04 ± 0.78
158.46 K | 147.24 ± 0.79
160.52 K | 148.42 ± 0.79
162.58 K | 149.59 ± 0.8
164.65 K | 150.76 ± 0.8
166.71 K | 151.98 ± 0.81
168.78 K | 153.15 ± 0.81
170.84 K | 154.38 ± 0.82
172.91 K | 155.61 ± 0.82
174.97 K | 156.8 ± 0.83
177.04 K | 158.04 ± 0.83
179.11 K | 159.26 ± 0.84
181.18 K | 160.5 ± 0.84
183.25 K | 161.87 ± 0.85
185.32 K | 163.21 ± 0.85
187.39 K | 164.56 ± 0.86
189.46 K | 165.92 ± 0.86
191.53 K | 167.36 ± 0.87
193.61 K | 168.95 ± 0.88
195.69 K | 170.66 ± 0.88
197.77 K | 172.38 ± 0.89
199.86 K | 174.39 ± 0.9
201.95 K | 176.91 ± 0.91
202.67 K | 177.34 ± 0.91
204.04 K | 179.87 ± 0.92
205.14 K | 181.79 ± 0.93
206.12 K | 184.42 ± 0.94
207.25 K | 188.13 ± 0.96
208.16 K | 192.2 ± 0.98
209.29 K | 200.7 ± 1
210.11 K | 209.2 ± 1.1
211.19 K | 228.95 ± 1.2
211.92 K | 238.53 ± 1.2
213.01 K | 255.28 ± 1.2
213.79 K | 257.19 ± 1.2
215.01 K | 258.34 ± 1.2
215.82 K | 258.85 ± 1.2
